# Active and inactive are the calls of the source.
# Assays:
# [1] = target: CAAX prenyl protease 2 (Homo sapiens, UniProt Q9Y256); test: human Rce1 protease inhibitors, dose response, biochemical, yeast membranes, quenched-peptide fluorescence, cherry-pick (AID 588849)
# [2] = target: CAAX prenyl protease 1 (Saccharomyces cerevisiae S288c, UniProt P47154); test: Ste24 protease inhibitors, dose response, biochemical, S. cerevisiae, plate reader, cherry-pick (AID 488815)
# [3] = target: T1, CAAX prenyl protease 2 (Saccharomyces cerevisiae S288c, UniProt Q03530); format: biochemical
# T1 sequence (Q03530 whole entry): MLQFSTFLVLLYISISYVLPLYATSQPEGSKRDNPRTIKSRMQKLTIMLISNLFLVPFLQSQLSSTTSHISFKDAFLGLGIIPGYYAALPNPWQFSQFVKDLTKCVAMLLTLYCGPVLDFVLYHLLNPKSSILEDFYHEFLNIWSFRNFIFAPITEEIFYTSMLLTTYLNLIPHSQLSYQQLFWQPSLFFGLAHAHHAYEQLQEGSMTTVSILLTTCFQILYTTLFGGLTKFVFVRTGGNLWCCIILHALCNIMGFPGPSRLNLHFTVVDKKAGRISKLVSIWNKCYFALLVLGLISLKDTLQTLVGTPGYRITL
# [4] = target: Trypsin (Sus scrofa, UniProt P00761); test: porcine trypsin inhibitors, dose response, selectivity assay for Rce1 protease inhibitor project, biochemical, quenched peptide fluorescence, cherry-pick (AID 488789)
# Sequence of Trypsin (P00761 whole entry): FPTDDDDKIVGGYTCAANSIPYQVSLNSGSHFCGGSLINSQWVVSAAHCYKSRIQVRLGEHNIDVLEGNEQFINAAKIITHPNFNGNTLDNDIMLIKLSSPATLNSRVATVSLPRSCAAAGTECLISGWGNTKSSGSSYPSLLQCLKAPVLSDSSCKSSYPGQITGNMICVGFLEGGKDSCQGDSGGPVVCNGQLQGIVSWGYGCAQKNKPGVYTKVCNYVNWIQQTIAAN
# [5] = system: HEK293; test: cells; format: functional, cell-based; details: Homo sapiens
# [6] = inhibitors of intracellular T. cruzi replication, confirmation, NIH3T3 host cells, beta-gal luminescence (AID 2044); format: functional, cell-based;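 further: intracellular parasites grown in NIH/3T3 mouse fibroblasts as host cells; luminescent beta-galactosidase reporter signal from transgenic T. cruzi replicating inside host cells; inhibitors lower the luminescence signal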
# [7] = cytotoxicity toward NIH3T3 fibroblasts, dose response, counter-screen, cell-based, ATP luminescence, mouse fibroblasts (AID 2010); format: functional;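 further: cells exposed to compound for about 90 hours before reading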
# [8] = system: HEK293; test: NOD1 signaling inhibitors, primary screen, cell-based, luminescence, uHTS (AID 1578); format: functional; details: Homo sapiens
# [9] = system: HEK293; test: cells; format: functional, cell-based; details: Homo sapiens; remark: listed apart in the source
# [10] = target: T2, Heat shock factor protein 1 (Mus musculus, UniProt P38532); test: HSF1 potentiators in luciferase reporter cells, confirmation, cell-based, NIH3T3, luminescence, dose retest (AID 435004); format: functional;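 further: stress induced by proteasome inhibitor MG132 added 30 min after compound; luciferase reporter driven by HSF1 response element in NIH3T3 cells; actives raise luminescence as potentiators of the MG132 stress response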
# T2 sequence (P38532 whole entry): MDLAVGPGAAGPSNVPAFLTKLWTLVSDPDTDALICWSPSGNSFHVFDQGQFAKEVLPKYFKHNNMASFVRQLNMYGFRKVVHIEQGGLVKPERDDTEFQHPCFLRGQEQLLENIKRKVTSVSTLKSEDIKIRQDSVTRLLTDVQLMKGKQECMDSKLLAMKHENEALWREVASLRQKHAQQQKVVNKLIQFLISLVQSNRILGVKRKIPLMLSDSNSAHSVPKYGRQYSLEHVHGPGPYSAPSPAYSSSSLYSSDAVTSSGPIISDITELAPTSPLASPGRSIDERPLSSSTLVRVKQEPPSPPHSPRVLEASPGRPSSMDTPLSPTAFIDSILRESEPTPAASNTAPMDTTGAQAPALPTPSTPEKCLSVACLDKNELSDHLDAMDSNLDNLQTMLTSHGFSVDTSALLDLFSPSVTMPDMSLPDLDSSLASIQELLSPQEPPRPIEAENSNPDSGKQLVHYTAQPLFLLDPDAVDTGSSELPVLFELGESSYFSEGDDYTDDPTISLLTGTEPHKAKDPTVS
# [11] = target: Delta-type opioid receptor (Homo sapiens, UniProt P41143); test: Counterscreen for agonists of heterodimerization of the mu 1 (OPRM1) and delta 1 (OPRD1) opioid receptors: Luminescence-based cell-based high throughput dose response assay to identify agonists of OPRD1 homodimerization. [Related pubchem assays (depositor defined):AID504326, AID504355, AID504692, AID504904, AID504905]; format: functional
# Sequence of Delta-type opioid receptor (P41143 whole entry): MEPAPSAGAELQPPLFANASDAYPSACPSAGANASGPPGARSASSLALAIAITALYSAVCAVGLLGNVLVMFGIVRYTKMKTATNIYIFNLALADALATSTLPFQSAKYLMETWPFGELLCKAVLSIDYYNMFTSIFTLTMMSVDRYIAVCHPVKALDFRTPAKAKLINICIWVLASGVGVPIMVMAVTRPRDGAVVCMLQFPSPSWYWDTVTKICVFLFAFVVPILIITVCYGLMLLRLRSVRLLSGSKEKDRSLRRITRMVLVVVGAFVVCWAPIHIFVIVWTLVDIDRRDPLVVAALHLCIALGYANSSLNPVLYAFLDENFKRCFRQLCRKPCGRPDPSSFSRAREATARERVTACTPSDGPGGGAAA
# [12] = target: T3, Short transient receptor potential channel 4 (Mus musculus, UniProt Q9QUQ5); test: mouse TRPC4 channel activators, dose response, cell-based, HEK293 TRPC4/mu-opioid, Fluo-4 calcium (AID 434937); format: functional
# T3 sequence (Q9QUQ5 whole entry): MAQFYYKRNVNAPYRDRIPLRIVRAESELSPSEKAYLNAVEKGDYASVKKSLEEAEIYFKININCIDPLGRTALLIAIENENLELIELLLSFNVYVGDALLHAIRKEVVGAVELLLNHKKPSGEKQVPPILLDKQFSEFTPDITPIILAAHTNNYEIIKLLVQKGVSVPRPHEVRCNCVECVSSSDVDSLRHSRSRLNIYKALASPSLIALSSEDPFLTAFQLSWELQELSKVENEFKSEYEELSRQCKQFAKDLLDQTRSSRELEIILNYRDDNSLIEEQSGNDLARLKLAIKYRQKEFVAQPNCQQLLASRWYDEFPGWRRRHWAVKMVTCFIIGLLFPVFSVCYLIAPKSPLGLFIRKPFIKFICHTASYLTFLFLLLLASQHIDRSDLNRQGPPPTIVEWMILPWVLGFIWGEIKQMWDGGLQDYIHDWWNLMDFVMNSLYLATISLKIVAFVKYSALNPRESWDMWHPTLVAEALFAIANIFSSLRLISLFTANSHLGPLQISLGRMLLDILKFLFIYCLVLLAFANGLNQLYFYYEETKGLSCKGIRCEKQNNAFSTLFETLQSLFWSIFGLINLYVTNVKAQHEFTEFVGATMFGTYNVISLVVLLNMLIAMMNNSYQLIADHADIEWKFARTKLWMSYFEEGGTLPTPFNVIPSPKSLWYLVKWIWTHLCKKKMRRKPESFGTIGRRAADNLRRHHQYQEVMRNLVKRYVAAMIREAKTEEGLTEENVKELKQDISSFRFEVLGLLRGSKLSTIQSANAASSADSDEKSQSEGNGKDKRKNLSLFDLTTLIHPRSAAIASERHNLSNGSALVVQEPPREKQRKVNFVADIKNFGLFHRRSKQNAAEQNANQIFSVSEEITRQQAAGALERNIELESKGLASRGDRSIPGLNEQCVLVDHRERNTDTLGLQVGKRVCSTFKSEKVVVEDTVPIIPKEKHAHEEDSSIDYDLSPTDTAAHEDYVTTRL
# [13] = target: Mu-type opioid receptor (Homo sapiens, UniProt P35372); test: Counterscreen for agonists of heterodimerization of the mu 1 (OPRM1) and delta 1 (OPRD1) opioid receptors: Luminescence-based cell-based high throughput dose response assay to identify agonists of OPRM1 homodimerization.; format: functional;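 further: U2OS cells expressing OPRM1 and beta-arrestin as split beta-galactosidase partners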
# Sequence of Mu-type opioid receptor (P35372 whole entry): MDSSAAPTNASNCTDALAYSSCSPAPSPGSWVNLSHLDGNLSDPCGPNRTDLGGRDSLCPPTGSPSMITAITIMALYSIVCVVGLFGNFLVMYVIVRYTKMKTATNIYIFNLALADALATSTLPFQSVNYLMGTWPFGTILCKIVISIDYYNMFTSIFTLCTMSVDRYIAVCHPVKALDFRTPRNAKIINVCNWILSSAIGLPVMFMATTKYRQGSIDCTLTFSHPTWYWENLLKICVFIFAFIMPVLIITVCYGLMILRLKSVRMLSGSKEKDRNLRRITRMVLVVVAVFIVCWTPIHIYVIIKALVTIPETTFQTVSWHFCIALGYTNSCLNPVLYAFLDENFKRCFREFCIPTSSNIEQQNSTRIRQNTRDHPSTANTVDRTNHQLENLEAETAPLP
# [14] = target: 5-hydroxytryptamine receptor 5A (Homo sapiens, UniProt P47898); test: Counterscreen for agonists of OPRM1-OPRD1 heterodimerization: luminescence-based cell-based high throughput dose response assay to identify agonists of 5-hydroxytryptamine (serotonin) 5A receptor (HTR5A). [Related pubchem assays (depositor defined):AID504326, AID504355, AID504692, AID504904, AID504905]; format: functional
# Sequence of 5-hydroxytryptamine receptor 5A (P47898 whole entry): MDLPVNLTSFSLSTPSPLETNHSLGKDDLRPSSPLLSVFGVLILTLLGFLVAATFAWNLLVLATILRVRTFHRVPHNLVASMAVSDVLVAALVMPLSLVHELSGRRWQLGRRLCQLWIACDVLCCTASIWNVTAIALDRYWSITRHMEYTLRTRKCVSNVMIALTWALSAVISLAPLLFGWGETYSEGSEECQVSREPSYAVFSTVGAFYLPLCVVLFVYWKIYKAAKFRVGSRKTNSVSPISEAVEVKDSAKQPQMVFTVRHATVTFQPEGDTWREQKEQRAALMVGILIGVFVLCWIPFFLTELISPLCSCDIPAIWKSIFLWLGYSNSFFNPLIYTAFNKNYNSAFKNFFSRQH
# [15] = system: Jurkat; test: antigen receptor-induced NF-kB inhibitors, dose response, Jurkat, luciferase reporter, luminescence, B- and T-cell (AID 489004); format: functional, cell-based; details: Homo sapiens;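 further: NF-kB luciferase reporter Jurkat cells stimulated with PMA plus ionomycin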
# [16] = target: T4, Type-1 angiotensin II receptor (Homo sapiens, UniProt P30556); test: AT1 receptor antagonists, dose response, selectivity assay for APJ receptor antagonist project, cell-based, uHTS hits (AID 463214); format: functional;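 further: antagonist potency against angiotensin II stimulated AT1 response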
# T4 sequence (P30556 whole entry): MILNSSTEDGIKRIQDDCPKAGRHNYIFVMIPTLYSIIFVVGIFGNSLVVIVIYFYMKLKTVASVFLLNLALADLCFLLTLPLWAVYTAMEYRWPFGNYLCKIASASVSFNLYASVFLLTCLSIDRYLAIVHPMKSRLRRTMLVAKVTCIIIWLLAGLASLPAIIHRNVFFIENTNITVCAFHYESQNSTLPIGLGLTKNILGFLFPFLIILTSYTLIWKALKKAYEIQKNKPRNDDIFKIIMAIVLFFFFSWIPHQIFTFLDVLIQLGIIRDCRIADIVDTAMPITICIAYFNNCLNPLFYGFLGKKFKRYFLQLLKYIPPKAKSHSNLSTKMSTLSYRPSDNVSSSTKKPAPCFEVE
# [17] = control 3'UTR Renilla luciferase suppression, dose response, counter-screen for Shn3 inhibitor project, cell-based, Clone20-Shn3RL, cherry-picked (AID 624133); format: functional
# [18] = HepG2 cell cytotoxicity, dose response, cytotoxicity control for Shn3 inhibitor project, CellTiter-Glo, cherry-picked (AID 624134); format: functional, cell-based
# [19] = inhibitors of firefly luciferase expression or activity, dose response, H4 neuroglioma cells, luminescence (AID 1990); format: functional, cell-based
# [20] = target: E3 ubiquitin-protein ligase Mdm2 (Homo sapiens, UniProt Q00987); test: enhancers of MDM2-luciferase reporter signal, concentration-effect titration, project on inhibitors of MDM2 ubiquitin ligase, cellular assay, luminescent readout, 384-well plate format (AID 1394); format: functional;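 further: MDM2 E3 inhibitors raise luminescence so EC50 is for signal enhancement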
# Sequence of E3 ubiquitin-protein ligase Mdm2 (Q00987 whole entry, the tested form may be a part): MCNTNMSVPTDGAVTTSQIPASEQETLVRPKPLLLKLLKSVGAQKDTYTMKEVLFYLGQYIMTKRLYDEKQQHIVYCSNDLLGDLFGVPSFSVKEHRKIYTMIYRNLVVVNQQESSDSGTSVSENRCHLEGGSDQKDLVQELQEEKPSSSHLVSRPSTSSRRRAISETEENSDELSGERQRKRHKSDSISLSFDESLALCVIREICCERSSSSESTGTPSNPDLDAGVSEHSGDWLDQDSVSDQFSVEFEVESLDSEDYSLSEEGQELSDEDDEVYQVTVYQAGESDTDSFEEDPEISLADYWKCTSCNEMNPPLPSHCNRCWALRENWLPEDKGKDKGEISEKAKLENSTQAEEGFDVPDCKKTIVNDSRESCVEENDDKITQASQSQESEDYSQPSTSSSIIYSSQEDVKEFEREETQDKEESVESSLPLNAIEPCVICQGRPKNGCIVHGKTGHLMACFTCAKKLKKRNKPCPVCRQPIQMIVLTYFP
# [21] = target: Photoreceptor-specific nuclear receptor (Homo sapiens, UniProt Q9Y5X4); format: functional, cell-based;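 further: CHO-S cells with Gal4-NCOR and VP16-NR2E3 two-hybrid luciferase reporter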
# Sequence of Photoreceptor-specific nuclear receptor (Q9Y5X4 whole entry, the tested form may be a part): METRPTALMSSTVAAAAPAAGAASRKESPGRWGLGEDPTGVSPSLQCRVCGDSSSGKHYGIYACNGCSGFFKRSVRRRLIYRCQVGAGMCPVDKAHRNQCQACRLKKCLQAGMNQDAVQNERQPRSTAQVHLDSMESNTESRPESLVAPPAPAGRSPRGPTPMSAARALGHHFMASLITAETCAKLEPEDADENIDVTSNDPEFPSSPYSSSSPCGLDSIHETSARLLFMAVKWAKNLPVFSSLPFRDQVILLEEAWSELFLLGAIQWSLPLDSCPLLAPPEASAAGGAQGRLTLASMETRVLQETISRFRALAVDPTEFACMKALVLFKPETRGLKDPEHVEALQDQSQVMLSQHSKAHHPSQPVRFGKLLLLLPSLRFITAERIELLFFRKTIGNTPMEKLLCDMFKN
# [22] = Shn3 3'UTR reporter inhibitors, dose response, cell-based, Clone20 osteoblasts, firefly luciferase, cherry-picked (AID 624132); format: functional;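 further: firefly luciferase luminescence from reporter carrying the Shn3 3'UTR in osteoblasts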
# [23] = target: G-protein coupled receptor 55 (Homo sapiens, UniProt Q9Y2T6); test: GPR55 antagonists blocking LPI-driven arrestin recruitment, primary screen, imaging, U2OS, beta-arrestin-GFP, LPI agonist (AID 2013); format: functional;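 further: antagonist potency measured as reduced agonist-driven arrestin aggregation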
# Sequence of G-protein coupled receptor 55 (Q9Y2T6 whole entry): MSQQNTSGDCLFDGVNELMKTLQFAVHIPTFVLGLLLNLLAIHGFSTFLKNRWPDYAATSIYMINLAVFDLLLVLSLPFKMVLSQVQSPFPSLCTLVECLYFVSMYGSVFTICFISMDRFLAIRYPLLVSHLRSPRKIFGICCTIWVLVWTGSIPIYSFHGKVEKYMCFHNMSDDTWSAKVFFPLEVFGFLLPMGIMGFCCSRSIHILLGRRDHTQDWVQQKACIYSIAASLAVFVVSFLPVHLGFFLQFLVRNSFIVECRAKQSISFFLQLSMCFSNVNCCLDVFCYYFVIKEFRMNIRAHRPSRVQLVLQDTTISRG
# [24] = target: Beta-galactosidase (Escherichia coli, UniProt Q8VNN2); test: PubChem AID 485352; format: functional
# Sequence of Beta-galactosidase (Q8VNN2 whole entry): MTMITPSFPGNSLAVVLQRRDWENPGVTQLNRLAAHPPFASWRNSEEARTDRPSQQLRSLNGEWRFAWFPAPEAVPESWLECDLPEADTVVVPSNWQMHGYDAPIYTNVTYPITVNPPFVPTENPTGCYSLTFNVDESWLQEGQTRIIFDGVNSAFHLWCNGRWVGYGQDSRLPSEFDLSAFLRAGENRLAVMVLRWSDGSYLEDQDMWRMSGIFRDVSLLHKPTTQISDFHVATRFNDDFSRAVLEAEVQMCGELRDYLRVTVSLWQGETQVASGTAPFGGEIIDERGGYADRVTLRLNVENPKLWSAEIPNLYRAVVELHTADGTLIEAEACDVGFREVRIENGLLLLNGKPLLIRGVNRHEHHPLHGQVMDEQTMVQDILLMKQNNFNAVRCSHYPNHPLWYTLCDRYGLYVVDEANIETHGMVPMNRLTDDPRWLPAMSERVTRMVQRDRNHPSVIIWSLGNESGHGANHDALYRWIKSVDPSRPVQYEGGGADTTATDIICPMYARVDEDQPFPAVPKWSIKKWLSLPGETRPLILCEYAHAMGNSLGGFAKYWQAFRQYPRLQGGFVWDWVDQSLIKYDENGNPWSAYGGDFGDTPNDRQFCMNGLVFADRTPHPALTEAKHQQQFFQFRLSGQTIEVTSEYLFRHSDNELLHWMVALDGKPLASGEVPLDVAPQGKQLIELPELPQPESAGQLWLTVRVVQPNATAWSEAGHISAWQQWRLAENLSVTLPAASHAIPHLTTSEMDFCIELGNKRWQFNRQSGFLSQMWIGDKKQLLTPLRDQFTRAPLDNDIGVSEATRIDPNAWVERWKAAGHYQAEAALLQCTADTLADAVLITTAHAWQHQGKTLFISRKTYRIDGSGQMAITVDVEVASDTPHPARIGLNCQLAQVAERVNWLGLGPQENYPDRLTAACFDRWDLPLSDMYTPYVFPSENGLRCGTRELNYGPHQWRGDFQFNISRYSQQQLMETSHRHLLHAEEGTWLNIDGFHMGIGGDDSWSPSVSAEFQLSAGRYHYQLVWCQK
# [25] = Luminescence Cell-Based Dose Response HTS to Identify Inhibitors of 5'UTR Stem-Loop Driven Prion Protein mRNA Translation in H4 Neuroglioblastoma Cells. [Related pubchem assays: 1827 (Project Summary), 1813 (Primary HTS)]; format: functional
# [26] = system: INS1; test: beta cell apoptosis inhibitors, cytokine rescue, dose response, luminescence, retest (AID 449756); format: functional, cell-based; details: Rattus norvegicus;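 further: cell death triggered by IL-1 beta plus TNF-alpha plus IFN-gamma mixture; protective hits raise ATP signal compared with cytokine alone wells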
# [27] = cytotoxicity in HEK-293T NF-kB-Luc cells, dose response, cytotoxicity control for B/T-cell NF-kB inhibitor project, cell-based, uHTS hits (AID 489019); format: functional;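 further: IC50 reflects cytotoxicity as loss of cell viability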
# Sequence of CAAX prenyl protease 1 (P47154 whole entry): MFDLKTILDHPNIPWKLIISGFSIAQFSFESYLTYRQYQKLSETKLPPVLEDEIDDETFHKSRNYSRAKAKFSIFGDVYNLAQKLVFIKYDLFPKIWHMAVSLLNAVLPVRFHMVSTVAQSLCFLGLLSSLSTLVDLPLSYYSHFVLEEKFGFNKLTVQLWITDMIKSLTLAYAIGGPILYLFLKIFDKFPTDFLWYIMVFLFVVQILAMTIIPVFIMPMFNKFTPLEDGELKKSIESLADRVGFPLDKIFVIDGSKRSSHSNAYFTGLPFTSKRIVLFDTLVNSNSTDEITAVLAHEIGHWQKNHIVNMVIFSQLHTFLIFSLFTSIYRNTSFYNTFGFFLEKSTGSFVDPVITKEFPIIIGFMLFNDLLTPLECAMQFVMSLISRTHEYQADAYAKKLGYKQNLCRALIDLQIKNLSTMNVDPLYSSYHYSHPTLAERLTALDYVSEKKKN
# Sequence of CAAX prenyl protease 2 (Homo sapiens, UniProt Q9Y256) (Q9Y256 whole entry): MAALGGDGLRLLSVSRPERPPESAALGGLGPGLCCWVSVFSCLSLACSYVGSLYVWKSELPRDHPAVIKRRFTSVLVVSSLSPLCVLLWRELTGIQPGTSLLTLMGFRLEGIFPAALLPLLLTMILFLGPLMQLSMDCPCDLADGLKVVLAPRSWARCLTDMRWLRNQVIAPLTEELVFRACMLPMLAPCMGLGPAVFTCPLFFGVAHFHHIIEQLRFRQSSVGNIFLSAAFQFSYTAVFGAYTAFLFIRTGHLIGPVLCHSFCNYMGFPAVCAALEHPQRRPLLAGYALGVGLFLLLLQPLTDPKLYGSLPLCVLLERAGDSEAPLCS
smiles,measurement,setting,value
COC(=O)c1sc2cnccc2c1N,AC50,[1],2.57 µM (active)
same,AC50,[2],4.39 µM (active)
same,AC50,[3],14 µM (active)
same,AC50,[4],9.63 µM (active)
Cc1cc(C(=O)N/N=C/c2ccc([N+](=O)[O-])s2)c2ccccc2n1,IC50,[5],15.8 µM (active)
same,EC50,[6],0.623 µM (active)
same,EC50,[7],> 30 µM (not active)
same,EC50,[8],7.6 µM (active)
same,IC50,[9],> 20 µM (inactive)
same,EC50,[10],13 µM (active)
Cc1cccc(NC(S)=NCC(c2cccnc2)N(C)C)c1C (configuration not stated),EC50,[11],17.8 µM (inactive)
same,EC50,[12],0.0067 µM (active)
same,EC50,[13],2.75 µM (active)
same,EC50,[14],> 92.5 µM (inactive)
C=C1C(=O)O[C@@H]2C[C@@H](C)[C@@H]3C=CC(=O)[C@@]3(C)[C@@H](O)[C@H]12 [HELENALIN],IC50,[15],1.02 µM (active)
same,IC50,[16],18.6 µM (active)
same,AC50,[17],1.53 µM (active)
same,AC50,[18],4.35 µM (active)
same,EC50,[19],4.62 µM (inconclusive)
same,EC50,[20],0.42 µM (active)
same,IC50,[21],1.92 µM (active)
same,AC50,[22],0.825 µM (active)
same,IC50,[23],2.64 µM (active)
same,EC50,[24],> 40 µM (inactive)
same,EC50,[25],8.32 µM (active)
same,AC50,[26],2.27 µM (active)
same,IC50,[27],> 80 µM (inactive)
